According to patent US11667649B2, “Heteroaromatic macrocyclic ether chemotherapeutic agents” (Nuvalent, Inc., priority 2020, dated 2023):

Key:
ROS1-wt kinase domain = target: T1, ROS1-wt kinase domain (Homo sapiens, UniProt P08922); assay: Biochemical kinase assay, ROS1-wt; conditions: 2 mM ATP substrate solution, read-out: Ki^app ROS1-wt
T1 construct: TRKA-wt (1 nM, BPS Bio, 40280) kinase domains in buffer; purchased Carna 08-163
Procedure: (§1) First, 250 nL of compound dissolved in DMSO (100-fold of the desired concentration) was dispensed into a 384-well plate. A 12.5 μL substrate solution containing ATP (2 mM) and fluorogenic phosphorylation substrate AQT0101 (26 μM for ALK and ROS1, AssayQuant) or AQT0104 (26 μM for TRKA, AssayQuant) in buffer (50 mM HEPES pH 7.5, 0.01% Brij-35, 0.5 mM EGTA, 10 mM MgCl2) was added and mixed thoroughly. Then, a 12.5 μL kinase solution containing ALK-wt (1.5 nM, Carna, 08-518), ALK ALK L1196M/G1202R (3 nM, SignalChem, A19-12NG), ROS1-wt (0.6 nM, Carna, 08-163), ROS1-G2032R (0.5 nM, SignalChem, R14-12BG), or TRKA-wt (1 nM, BPS Bio, 40280) kinase domains in buffer ([…] HEPES pH 7.5, 0.01% Brij-35, 2% glycerol, 0.4 mg/mL BSA, 0.5 mM EGTA, and 10 mM MgCl2) was added and mixed thoroughly. The plate was sealed and read by SpectraMax Paradigm at λ=485 nm every 2 minutes for 120 minutes at 30° C. Initial rates of reaction (v) were calculated from the change in fluorescence intensity over time during the initial, linear portion of the reaction. Finally, apparent inhibitory constants (Ki^app) were determined from regression of v and I (inhibitor concentration) to Morrison Equation (E=enzyme concentration): […]

[1] = target: T2, ALK L1196M/G1202R kinase domain (Homo sapiens, UniProt Q9UM73, G1202R/L1196M); assay: Biochemical kinase assay, ALK L1196M/G1202R; conditions: 2 mM ATP substrate solution, read-out: Ki^app ALK-L1196M-G1202R
T2 construct: TRKA-wt (1 nM, BPS Bio, 40280) kinase domains in buffer; purchased SignalChem A19-12NG
Procedure: as §1

ALK-wt kinase domain = target: T3, ALK-wt kinase domain (Homo sapiens, UniProt Q9UM73); assay: Biochemical kinase assay, ALK-wt; conditions: 2 mM ATP substrate solution, read-out: Ki^app ALK-wt
T3 construct: TRKA-wt (1 nM, BPS Bio, 40280) kinase domains in buffer; purchased Carna 08-518
Procedure: as §1

[2] = target: T4, ROS1-G2032R kinase domain (Homo sapiens, UniProt P08922, G2032R); assay: Biochemical kinase assay, ROS1-G2032R; conditions: 2 mM ATP substrate solution, read-out: Ki^app ROS1-G2032R
T4 construct: TRKA-wt (1 nM, BPS Bio, 40280) kinase domains in buffer; purchased SignalChem R14-12BG
Procedure: as §1

TRKA-wt kinase domain = target: T5, TRKA-wt kinase domain (Homo sapiens, UniProt P04629); assay: Biochemical kinase assay, TRKA-wt; conditions: 2 mM ATP substrate solution, read-out: Ki^app TRKA-wt
T5 construct: TRKA-wt (1 nM, BPS Bio, 40280) kinase domains in buffer; purchased BPS Bio 40280
Procedure: as §1

[3] = test system: TPM3-NTRK1-wt IC50 / primary target (e.g. CD74-ROS1-wt) IC50, Ba/F3 cells; assay: Cell assay TRKA selectivity (TRKA potency divided by primary target potency); type: cell-based; conditions: for TPM3-NTRK1-wt/CD74-ROS1-G2032R: TRKA selectivity ratio: TPM3-NTRK1-wt IC50 / CD74-ROS1-G2032R IC50, Ba/F3 cells; for TPM3-NTRK1-wt/CD74-ROS1-wt: TRKA selectivity ratio: TPM3-NTRK1-wt IC50 / CD74-ROS1-wt IC50, Ba/F3 cells; for TPM3-NTRK1-wt/EML4-ALK-L1196M-G1202R: TRKA selectivity ratio: TPM3-NTRK1-wt IC50 / EML4-ALK-L1196M-G1202R IC50, Ba/F3 cells; for TPM3-NTRK1-wt/EML4-ALK-wt: TRKA selectivity ratio: TPM3-NTRK1-wt IC50 / EML4-ALK-wt IC50, Ba/F3 cells
How it was run: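 Ratio of TRKA to primary-target cellular IC50 (e.g. TPM3-NTRK1-wt/CD74-ROS1-wt), grouped into bins A >30, B >10, C ≥1, D <1. Each IC50 came from engineered Ba/F3 fusion lines grown without IL-3, dosed for 72 h and read as CellTiter-Glo luminescence, with a four-parameter logistic fit.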

SMILES | Ki (ROS1-wt kinase domain) | Ki [1] | Ki (ALK-wt kinase domain) | Ki [2] | Ki (TRKA-wt kinase domain) | TPM3-NTRK1-wt/CD74-ROS1-G2032R [3] | TPM3-NTRK1-wt/CD74-ROS1-wt [3] | TPM3-NTRK1-wt/EML4-ALK-L1196M-G1202R [3] | TPM3-NTRK1-wt/EML4-ALK-wt [3]
CC1Oc2cc(cnc2N)-c2c(cnn2CC(F)F)Cn2ccnc2-c2ccc(F)cc21 (centres unmarked) [Compound 40] | < 50 nM | 50 to 500 nM | < 50 nM | < 50 nM | > 500 nM | – | – | – | –
CCn1nnc2c1-c1cnc(N)c(c1)O[C@H](C)c1cc(F)ccc1-c1sncc1C2 [Compound 93] | < 50 nM | < 50 nM | < 50 nM | < 50 nM | 50 to 500 nM | – | – | – | –
CCc1c(C#N)nn2c1-c1cnc(N)c(c1)O[C@H](C)c1cc(F)ccc1-c1nn(C)cc1C2 [Compound 6] | < 50 nM | < 50 nM | < 50 nM | < 50 nM | 50 to 500 nM | – | – | – | –
CCn1ncc2c1-c1cnc(N)c(c1)O[C@H](C)c1cc(F)ccc1-c1nc(C)cn1C2 [Compound 45] | < 50 nM | < 50 nM | < 50 nM | < 50 nM | < 50 nM | – | – | – | –
CCn1nnc2c1-c1cnc(N)c(c1)O[C@H](C)c1cc(F)ccc1-n1nc(C(F)(F)F)cc1C2 [Compound 107] | < 50 nM | < 50 nM | < 50 nM | < 50 nM | 50 to 500 nM | – | – | – | –
Cc1nn(CC2CC2)c2c1Cc1c(nn(C)c1Cl)-c1ccc(F)cc1[C@@H](C)Oc1cc-2cnc1N [Compound 54] | < 50 nM | < 50 nM | < 50 nM | < 50 nM | > 500 nM | – | – | – | –
C[C@H]1Oc2cc(cnc2N)-c2c(C#N)nn(C)c2Cc2scnc2-c2ccc(F)cc21 [Compound 94] | < 50 nM | < 50 nM | < 50 nM | < 50 nM | 50 to 500 nM | – | – | – | –
Cc1nc2c(s1)Cn1cnc(C#N)c1-c1cnc(N)c(c1)O[C@H](C)c1cc(F)ccc1-2 [Compound 65] | < 50 nM | < 50 nM | < 50 nM | < 50 nM | > 500 nM | – | – | – | –
CCn1ncc2c1-c1cnc(N)c(c1)O[C@H](C)c1cc(F)ccc1-n1ncc(F)c1C2 [Compound 46] | – | < 50 nM | < 50 nM | < 50 nM | < 50 nM | – | – | – | –
CCn1ncc2c1-c1ccc(F)cc1C(C)Oc1nc(cnc1N)-c1c(cnn1C)C2 (centres unmarked) [Example 165, 11-ethyl-16-fluoro-3,19-dimethyl-20-oxa-3,4,10,11,23,25-hexaazapentacyclo[19.3.1.0^2,^6.0^8,^12.0^13,^18]pentacosa-1(24),2(6),4,8(12),9,13,15,17,21(25),22-decaen-22-amine] | – | – | – | – | – | C (bin C for moderate selectivity, ratio≥1) | B (bin B for high selectivity, ratio>10-fold) | D (bin D for low selectivity, ratio<1) | C (bin C for moderate selectivity, ratio≥1)
CCn1ncc2c1-c1cnc(N)c(c1)O[C@H](C)c1cc(F)ccc1-c1nc(OC)ccc1C2 [Example 145, (20R)-3-ethyl-17-fluoro-11-methoxy-20-methyl-21-oxa-3,4,12,24-tetraazapentacyclo[20.3.1.0^2,^6.0^8,^13.0^14,^19]hexacosa-1(25),2(6),4,8(13),9,11,14,16,18,22(26),23-undecaen-23-amine] | – | – | – | – | – | A (bin A for very high selectivity, ratio>30-fold) | A (bin A for very high selectivity, ratio>30-fold) | C (bin C for moderate selectivity, ratio≥1) | A (bin A for very high selectivity, ratio>30-fold)
C[C@H]1Oc2cc(cnc2N)-c2c(cnn2CC2CC2)Cc2cccnc2-c2ccc(F)cc21 [Example 137, (20R)-3-(cyclopropylmethyl)-17-fluoro-20-methyl-21-oxa-3,4,12,24-tetraazapentacyclo[20.3.1.0^2,^6.0^8,^13.0^14,^19]hexacosa-1(25),2(6),4,8(13),9,11,14,16,18,22(26),23-undecaen-23-amine] | – | – | – | – | – | A (bin A for very high selectivity, ratio>30-fold) | A (bin A for very high selectivity, ratio>30-fold) | A (bin A for very high selectivity, ratio>30-fold) | A (bin A for very high selectivity, ratio>30-fold)
C[C@H]1Oc2cc(cnc2N)-c2c(C#N)nnn2Cc2cn(C)nc2-c2ccc(F)cc21 [Example 24, (19R)-22-amino-16-fluoro-10,19-dimethyl-20-oxa-4,5,6,10,11,23-hexaazapentacyclo[19.3.1.0^2,^6.0^8,^12.0^13,^18]pentacosa-1(24),2,4,8,11,13,15,17,21(25),22-decaene-3-carbonitrile] | – | – | – | – | – | A (bin A for very high selectivity, ratio>30-fold) | A (bin A for very high selectivity, ratio>30-fold) | C (bin C for moderate selectivity, ratio≥1) | A (bin A for very high selectivity, ratio>30-fold)
Cc1cc2n(n1)-c1ccc(F)cc1[C@@H](C)Oc1cc(cnc1N)-c1c(C#N)nn(C)c1C2 [Example 97, (19R)-22-amino-16-fluoro-5,10,19-trimethyl-20-oxa-4,5,11,12,23-pentaazapentacyclo[19.3.1.0^2,^6.0^8,^12.0^13,^18]pentacosa-1(24),2(6),3,8,10,13,15,17,21(25),22-decaene-3-carbonitrile] | – | – | – | – | – | A (bin A for very high selectivity, ratio>30-fold) | A (bin A for very high selectivity, ratio>30-fold) | B (bin B for high selectivity, ratio>10-fold) | A (bin A for very high selectivity, ratio>30-fold)

Now from value to compound, other results behind:

Ki (ROS1-wt kinase domain) | Ki [1] | Ki (ALK-wt kinase domain) | Ki [2] | Ki (TRKA-wt kinase domain) | SMILES | TPM3-NTRK1-wt/CD74-ROS1-G2032R [3] | TPM3-NTRK1-wt/CD74-ROS1-wt [3] | TPM3-NTRK1-wt/EML4-ALK-L1196M-G1202R [3] | TPM3-NTRK1-wt/EML4-ALK-wt [3]
< 50 nM | < 50 nM | < 50 nM | < 50 nM | 50 to 500 nM | C[C@H]1Oc2cc(cnc2N)-c2c(nn(C)c2C#N)Cc2cn(C)nc2-c2ccc(F)cc21 [Compound 111] | – | – | – | –
< 50 nM | < 50 nM | < 50 nM | < 50 nM | 50 to 500 nM | CCn1ncc2c1-c1cnc(N)c(c1)O[C@H](C)c1cc(F)ccc1-c1nc(OC)ccc1C2 [Compound 145] | – | – | – | –
< 50 nM | 50 to 500 nM | < 50 nM | 50 to 500 nM | > 500 nM | CCn1ncc2c1-c1cnc(N)c(c1)OC(CO)c1cc(F)ccc1-c1nccn1C2 (centres unmarked) [Compound 166] | – | – | – | –
< 50 nM | < 50 nM | < 50 nM | < 50 nM | > 500 nM | Cc1cc2n(n1)-c1ccc(F)cc1COc1cc(cnc1N)-c1c(cnn1CC1CC1)C2 [Compound 126] | – | – | – | –
< 50 nM | < 50 nM | < 50 nM | < 50 nM | 50 to 500 nM | C[C@H]1Oc2cc(cnc2N)-c2c(C#N)nn(C)c2Cc2csnc2-c2ccc(F)cc21 [Compound 143] | – | – | – | –
< 50 nM | 50 to 500 nM | < 50 nM | > 500 nM | < 50 nM | CC(C)n1nc2c(c1C#N)-c1cnc(N)c(c1)O[C@H](C)c1cc(F)ccc1-n1nccc1C2 [Compound 118] | – | – | – | –
< 50 nM | < 50 nM | < 50 nM | < 50 nM | < 50 nM | CCn1ncc2c1-c1cnc(N)c(c1)O[C@H](C)c1cc(F)ccc1-c1ncc(OC)cc1C2 [Compound 149] | – | – | – | –
– | < 50 nM | – | – | < 50 nM | CCc1nn(C)c2c1-c1cnc(N)c(c1)O[C@H](C)c1cc(F)ccc1-c1nc(C)sc1C2 [Compound 173] | – | – | – | –
– | < 50 nM | < 50 nM | – | > 500 nM | C[C@H]1Oc2cc(cnc2N)-c2c(cnn2CC2(C)CC2)Cc2cn(C)nc2-c2ccc(F)cc21 [Compound 159] | – | – | – | –
